Among the data in patent US8119681B2, “2-[1-phenyl-5-hydroxy or methoxy-4alpha-methyl-hexahydrocyclopenta [ƒ]indazole-5-YL]ethyl phenyl derivatives as glucocorticoid receptor ligands” (Merck Sharp & Dohme Corp., priority 2006, dated 2012) are Emax and EC50 values, retold here.

For the assay, the target named is T1, human GR (Homo sapiens, UniProt P04150).
T1 sequence (P04150 1-777): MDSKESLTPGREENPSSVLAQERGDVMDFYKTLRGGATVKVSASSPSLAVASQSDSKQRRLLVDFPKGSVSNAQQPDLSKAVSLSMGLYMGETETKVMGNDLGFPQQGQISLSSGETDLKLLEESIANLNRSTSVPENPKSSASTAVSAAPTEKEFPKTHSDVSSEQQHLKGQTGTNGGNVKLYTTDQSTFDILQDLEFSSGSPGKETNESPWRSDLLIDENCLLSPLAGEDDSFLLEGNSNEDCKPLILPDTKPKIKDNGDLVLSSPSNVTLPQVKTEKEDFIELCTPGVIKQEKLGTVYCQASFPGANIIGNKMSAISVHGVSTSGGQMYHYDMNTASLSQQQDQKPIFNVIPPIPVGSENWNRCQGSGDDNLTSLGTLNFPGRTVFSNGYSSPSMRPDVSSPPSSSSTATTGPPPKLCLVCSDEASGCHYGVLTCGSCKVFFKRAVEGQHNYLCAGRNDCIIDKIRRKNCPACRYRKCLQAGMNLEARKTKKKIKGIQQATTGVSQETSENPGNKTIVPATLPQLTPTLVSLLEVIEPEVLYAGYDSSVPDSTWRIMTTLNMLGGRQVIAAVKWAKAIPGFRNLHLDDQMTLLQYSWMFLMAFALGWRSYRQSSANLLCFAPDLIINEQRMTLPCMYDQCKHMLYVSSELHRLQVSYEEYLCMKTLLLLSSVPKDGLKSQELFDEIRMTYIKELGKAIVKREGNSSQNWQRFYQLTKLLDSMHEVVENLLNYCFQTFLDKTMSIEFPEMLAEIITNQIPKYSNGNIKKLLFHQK
The assay can be described thus: Trans-Activation Modulation of Glucocorticoid Receptor (GRAMMER), MMTV-LUC reporter gene. The class given is cell-based. Details: endogenous in cells. The conditions noted are these: for Emax: A549; for EC50: A549 cells, IP = inflection point. The text has this: Trans-Activation Modulation of Glucocorticoid Receptor (GRAMMER)
This assay assesses the ability of test compounds to control transcription from the MMTV-LUC reporter gene in lung adenocarcinoma A549 cells or HeLa cells, a human […] cell line that naturally expresses the human GR. The assay measures induction of a modified MMTV LTR/promoter linked to the LUC reporter gene.
The routine transient assay consists of plating 7,000-25,000 cells/well of a white, clear-bottom 96-well plate. Alternatively, 384-well plates can be used at a cell concentration of 10,000/well. The media that the cells are plated in is “exponential growth medium” which consists of phenol red-free RPMI1640 containing 10% FBS, 4 mM L-glutamine, 20 mM HEPES, 10 ug/mL human insulin, and 20 ug/mL gentamicin. Incubator conditions are 37° C. and 5% CO2. The transfection is done in batch mode. The cells are trypsinized and counted to the right cell number in the proper amount of fresh media. It is then gently mixed with the FuGene6/DNA mix and plated onto the 96 or 384-well plate, all the wells receive 100 uL or 40 uL, respectively, of medium+lipid/DNA complex then incubated 37° C. overnight. The transfection cocktail consists of serum-free OptiMEM, FuGene6 reagent and DNA. The manufacturer's (Roche Biochemical) protocol for cocktail setup is as follows: The lipid to DNA ratio is approximately 2.5:1 and the incubation time is 20 min at room temperature. Sixteen to 24 hours after transfection, the cells are treated with dexamethasone to a final concentration of 10 nM as well as the compound of interest, such that final DMSO (vehicle) concentration is equal to or less than 1%. Each plate also contains samples that are treated with 10 nM dexamethasone alone, which is used as the 100% activity control. The cells are exposed to the compounds for 24 hours. After 24 hours, the cells are lysed by a Promega cell culture lysis buffer for approximately 30 min and then the luciferase activity in the extracts is assayed in the 96-well format luminometer. In 384-well format, Steady-Glo (Promega) or Steady-Lite (PerkinElmer) can be used by adding an equal volume of reagent to the media present in each well. Activity induced by 10 nM dexamethasone alone is set at 100% activity. Antagonist activity is calculated by determining the decrease in dexamethasone-induced activity in response to compound treatment relative to samples that were treated with dexamethasone alone. […] This transactivation assay can be performed in an agonist and antagonist mode to identify these different activities. […]

Setting [1] is: read-out: Transactivation A549 Cells GRAMMER Emax (%).
[2] abbreviates: Table 1, read-out: Transactivation A549 Cells GRAMMER IP.
Setting [3] is: read-out: Transactiviation A549 Cells GRAMMER Emax (%).
Setting [4] is: Table 2, read-out: Transactiviation A549 Cells GRAMMER IP.

Where two headings read alike, the source gives them in different places.

Broadly, the Emax is the maximal effect, on the per cent scale that the assay sets. Regarding `CC(C)NC(=O)c1ccccc1CC[C@]1(O)CCC2=Cc3c(cnn3-c3ccc(F)cc3)C[C@@]21C` [Example 35, 2-{2-[(4αS,5R)-1-(4-fluorophenyl)-5-hydroxy-4α-methyl-1,4,4α,5,6,7-hexahydrocyclopenta[f]indazol-5-yl]ethyl}-N-isopropylbenzamide], the Emax under setting [1] came out at 48%. In addition, under setting [2], the EC50 is 60 nM.

In the case of `C[C@]12Cc3cnn(-c4ccc(F)cc4)c3C=C1CC[C@@]2(O)CCc1ccccc1C(=O)NCC1CC1` [Example 37, N-(cyclopropylmethyl)-2-{2-[(4αS,5R)-1-(4-fluorophenyl)-5-hydroxy-4α-methyl-1,4,4α,5,6,7-hexahydrocyclopenta[r]indazol-5-yl]ethyl}benzamide], under setting [1], the maximum response (Emax) turned out to be 57%. In addition, the EC50 under setting [2] stood at 65 nM.

With `CC(CNC(=O)c1c(F)cccc1CC[C@]1(O)CCC2=Cc3c(cnn3-c3ccc(F)cc3)C[C@@]21C)C(F)(F)F` (stereo partly drawn) [Example 38, 2-fluoro-6-{2-[(4αS,5R)-1-(4-fluorophenyl)-5-hydroxy-4α-methyl-1,4,4α,5,6,7-hexahydrocyclopenta[f]indazol-5-yl]ethyl}-N-(3,3,3-trifluoro-2-methylpropyl)benzamide], the maximal response (Emax) under setting [1] came out at 15%. For the same compound, under setting [2], the EC50 came out at 91 nM.

For `C[C@]12Cc3cnn(-c4ccc(F)cc4)c3C=C1CC[C@@]2(O)CCc1ccccc1Cl` [Example 40 WO 2004/075840 A2, reference compound], the Emax under setting [3] is 98%. The EC50 under setting [4] was determined as 162 nM.

`C[C@]12Cc3cnn(-c4ccc(F)cc4)c3C=C1CC[C@@]2(O)CCc1ccccc1C(=O)N1CCC1` [Example 40, (4αS,5R)-5-{2-[2-(azetidin-1-ylcarbonyl)phenyl]ethyl}-1-(4-fluorophenyl)-4α-methyl-1,4,4α,5,6,7-hexahydrocyclopenta[f]indazol-5-ol]: the maximal effect (Emax) under setting [1] was 46%. The EC50 under setting [2] is 231 nM.

In the case of `C[C@]12Cc3cnn(-c4ccc(F)cc4)c3C=C1CCC[C@@]2(O)CCc1ccccc1Cl` [Example 41 WO 2004/075840 A2, reference compound], the Emax under setting [3] was 92%. In addition, the EC50 under setting [4] stood at 123 nM.

As to `COC(=O)C(C)(C)NC(=O)c1c(F)cccc1CC[C@]1(O)CCC2=Cc3c(cnn3-c3ccc(F)cc3)C[C@@]21C` [Example 41, methyl N-(2-fluoro-6-{2-[(4αS,5R)-1-(4-fluorophenyl)-5-hydroxy-4α-methyl-1,4,4α,5,6,7-hexahydrocyclopenta[f]indazol-5-yl]ethyl}benzoyl)-2-methylalaninate], under setting [1], the Emax came out at 18%. The EC50 under setting [2] was 46 nM.

As to `C[C@]12Cc3cnn(-c4ccccc4)c3C=C1CC[C@@]2(O)CCc1ccccc1C(=O)NC1CC1` [Example 42, N-cyclopropyl-2-{2-[(4αS,5R)-5-hydroxy-4α-methyl-1-phenyl-1,4,4α,5,6,7-hexahydrocyclopenta[f]indazol-5-yl]ethyl}benzamide], the Emax under setting [1] worked out at 51%. Under setting [2], the EC50 worked out at 74 nM.

For the compound `C[C@]12Cc3cnn(-c4ccccc4)c3C=C1CC[C@@]2(O)CCc1ccccc1C(N)=O` [Example 43, 2-{2-[(4αS,5R)-5-hydroxy-4α-methyl-1-phenyl-1,4,4α,5,6,7-hexahydrocyclopenta[f]indazol-5-yl]ethyl}benzamide], the maximum response (Emax) under setting [1] stood at 59%. Moreover, under setting [2], the EC50 was found to be 111 nM.

Consider `C=C(C)CNC(=O)c1c(F)cccc1CC[C@]1(O)CCC2=Cc3c(cnn3-c3ccc(F)cc3)C[C@@]21C` [Example 44, 2-fluoro-6-{2-[(4αS,5R)-1-(4-fluorophenyl)-5-hydroxy-4α-methyl-1,4,4α,5,6,7-hexahydrocyclopenta[f]indazol-5-yl]ethyl}-N-(2-methylprop-2-en-1-yl)benzamide], for which, under setting [1], the Emax was found to be 24%. Further, the EC50 under setting [2] worked out at 95 nM.

For the compound `C[C@H](CNC(=O)c1ccccc1CC[C@]1(O)CCC2=Cc3c(cnn3-c3ccc(F)cc3)C[C@@]21C)C(F)(F)F` [Example 45, 2-{2-[(4αS,5R)-1-(4-fluorophenyl)-5-hydroxy-4α-methyl-1,4,4α,5,6,7-hexahydrocyclopenta[f]indazol-5-yl]ethyl}-N-[(2R)-3,3,3-trifluoro-2-methylpropyl]benzamide], under setting [1], the maximal response (Emax) was 18%. Further, under setting [2], the EC50 was determined as 183 nM.

As for `C[C@]12Cc3cnn(-c4ccc(F)cc4)c3C=C1CC[C@@]2(O)CCc1ccc(F)cc1` [Example 46 WO 2004/075840 A2, reference compound], the maximal effect (Emax) under setting [3] was 26%. For the same compound, the EC50 under setting [4] came out at 571 nM.

On to `C[C@]12Cc3cnn(-c4ccc(F)cc4)c3C=C1CC[C@@]2(O)CCc1ccccc1C(=O)N1CCCCC1` [Example 46, (4αS,5R)-1-(4-fluorophenyl)-4α-methyl-5-{2-[2-(piperidin-1-ylcarbonyl)phenyl]ethyl}-1,4,4α,5,6,7-hexahydrocyclopenta[f]indazol-5-ol], for which, under setting [1], the maximum response (Emax) was 54%. In addition, the EC50 under setting [2] was determined as 176 nM.

Regarding `C[C@]12Cc3cnn(-c4ccc(F)cc4)c3C=C1CC[C@@]2(O)CCc1ccccc1C(=O)N1CCCC1` [Example 47, (4αS,5R)-1-(4-fluorophenyl)-4α-methyl-5-{2-[2-(pyrrolidin-1-ylcarbonyl)phenyl]ethyl}-1,4,4α,5,6,7-hexahydrocyclopenta[f]indazol-5-ol], the maximum response (Emax) under setting [1] came out at 59%. In addition, the EC50 under setting [2] came to 196 nM.

For the compound `CC(C)[C@@H](C)NC(=O)c1c(F)cccc1CC[C@]1(O)CCC2=Cc3c(cnn3-c3ccc(F)cc3)C[C@@]21C` [Example 48, N-[(1R)-1,2-dimethylpropyl]-2-fluoro-6-{2-[(4αS,5R)-1-(4-fluorophenyl)-5-hydroxy-4α-methyl-1,4,4α,5,6,7-hexahydrocyclopenta[f]indazol-5-yl]ethyl}benzamide], the maximal response (Emax) under setting [1] was found to be 13%. Moreover, the EC50 under setting [2] stood at 94 nM.

On to `CCCNC(=O)c1c(F)cccc1CC[C@]1(O)CCC2=Cc3c(cnn3-c3ccc(F)cc3)C[C@@]21C` [Example 49, 2-fluoro-6-{2-[(4αS,5R)-1-(4-fluorophenyl)-5-hydroxy-4α-methyl-1,4,4α,5,6,7-hexahydrocyclopenta[f]indazol-5-yl]ethyl}-N-propylbenzamide], for which the Emax under setting [1] stood at 25%. Further, the EC50 under setting [2] was 26 nM.

Take `CCNC(=O)c1ccccc1CC[C@]1(O)CCC2=Cc3c(cnn3-c3ccc(F)c(F)c3)C[C@@]21C` [Example 51, 2-{2-[(4αS,5R)-1-(3,4-difluorophenyl)-5-hydroxy-4α-methyl-1,4,4α,5,6,7-hexahydrocyclopenta[f]indazol-5-yl]ethyl}-N-ethylbenzamide]: the Emax under setting [1] stood at 30%. Moreover, the EC50 under setting [2] was determined as 164 nM.

As to `COC(=O)C(C)(C)NC(=O)c1ccccc1CC[C@]1(O)CCC2=Cc3c(cnn3-c3ccc(F)cc3)C[C@@]21C` [Example 52, methyl N-(2-{2-[(4αS,5R)-1-(4-fluorophenyl)-5-hydroxy-4α-methyl-1,4,4α,5,6,7-hexahydrocyclopenta[f]indazol-5-yl]ethyl}benzoyl)-2-methylalaninate], the Emax under setting [1] worked out at 45%. Moreover, the EC50 under setting [2] came to 21 nM.
